The text below walks through data of patent US20080003215A1, “Use of pre-dissolved pristinamycin-type and polyether ionophore type antimicrobial agents in the production of ethanol” (priority 2006, published 2008).

SMILES strings stand for the structures.

One data set relates to Yeast #1. The data set can be described thus: Solvent compatibility with yeast corn mash fermentation, Yeast #1. Conditions: Yeast #1, corn mash. As for the experimental part:
(§1) Dialkylsulfoxides and alkyl pyrrolidones, where the alkyl groups are independently C1 to C4, are particularly preferred. Dimethylsulfoxide (DMSO) and N-Methyl-2-Pyrrolidone (M-Pyrol or NMP) compatibility with yeast corn mash fermentations were evaluated with two yeasts (Yeast#1 and Yeast#2) commercially used in the fuel ethanol industry. Concentrations of 0 to 1200 ppm of either solvent were added at the beginning of dry-milled corn-mash fermentations along with either yeast.
(§2) Sterile saccharified 26% wt. %/v corn mash was prepared using substantially the same procedure described in Example 2. To each of 6 pre-sterilized Celstir™ fermentors (Wheaton Instruments, Millville, N.J.), 500 g sterile mash was aseptically added. The fermentors were temperature controlled to 32° C. using circulating water baths (Haake D8;G, Berlin, Germany) to pump water through the jackets of the Celstir fermentors. Magnetic stirrers (IKA-Lavortechnik, Staufen, Germany) were used to mix the fermentors at approximately 200 RPM. […] Then, to each fermentator was added 1) 1 ml of 0.2 μm filter-sterilized Urea stock solution (8 mM urea in fermentors); 2) 1 ml filter sterilized aqueous DMSO (Gaylord Chemical, CAS#67-68-5) or aqueous M-Pyrol (ISP, CAS#872-50-) solutions; and 3) 1.027 g Yeast#1 or Yeast#2 commercial active dry yeasts in 18 ml sterile water.
Samples (22 ml) were taken at 0, 6, 12, 24, 36, and 48 h and placed on ice to prevent growth. An 11 ml aliquot of each sample was serially diluted in 0.1% w/v sterile peptone water, and microbiologically plated onto MRS agar plates in duplicate. All plates were incubated for 48 h at 30° C. in an anaerobic CO2 incubation chamber, and manually enumerated for viable Lactobacilli. The remaining 11 ml aliquot of each sample was centrifuged (10K RPM, 4° C., 20 minutes) in a Sorvall RC-5C centrifuge. The liquid supernatant was then passed through a 0.2 μm membrane filter to remove any particulates and frozen for future analysis. Lactic acid, glycerol, ethanol, acetic acid, and glucose concentrations were determined by HPLC analysis. The samples were thawed and diluted to the required extent with Milli-Q water. Aliquots of the diluted samples (100 μl) were each mixed with an equal volume of 2% w/v boric acid (internal standard), and injected into a Biorad HPX-87H Aminex™ column equilibrated at 40° C. The eluent was 5 mM sulfuric acid flowing at a rate of 0.7 ml/min. The components were detected by a differential refractometer (Model 4210, Waters Chromatographic Division, Milford, Mass.) and the subsequent data processed by the supplied Waters Millenium32 software. All fermentations were performed in duplicate.

The subject of another data set is Yeast #2. The data set can be described thus: Solvent compatibility with yeast corn mash fermentation, Yeast #2. The protocol: as §1, §2
Samples (22 ml) were taken at 0, 6, 12, 24, 36, and 48 h and placed on ice to prevent growth. An 11 ml aliquot of each sample was serially diluted in 0.1% w/v sterile peptone water, and microbiologically plated onto MRS agar plates in duplicate. All plates were incubated for 48 h at 30° C. in an anaerobic CO2 incubation chamber, and manually enumerated for viable Lactobacilli. […] Lactic acid, glycerol, ethanol, acetic acid, and glucose concentrations were determined by HPLC analysis. […] The components were detected by a differential refractometer (Model 4210, Waters Chromatographic Division, Milford, Mass.) and the subsequent data processed by the supplied Waters Millenium32 software. […]

The test system of the next data set is humans. Conditions: cited from earlier work.

`CN1CCCC1=O` [NMP, N-Methyl-2-Pyrrolidone]: the Ethanol production with Yeast #1 (1000 ppm solvent (control 8.1%)) turned out to be 7.8%; in the data set on Yeast #2 (Yeast #2, corn mash, 1000 ppm solvent, 48 hours (control 10%)), 9.1%. For the same compound, the Yeast viability entry in the data set with Yeast #1 (solvent concentrations above 400 ppm) was “slight decline in yeast viability”. For the same compound, the Ethanol concentration trend entry in the data set with Yeast #2 (Yeast #2, solvent concentrations >400 ppm) was “consistent trend towards lower concentrations of ethanol”.
On to `C[S+](C)[O-]` [DMSO, Dimethylsulfoxide], for which, in the data set with Yeast #1 (0 to 1200 ppm solvent), the “Ethanol production (inhibition)” value is reported as “did not inhibit ethanol production”. In the data set on Yeast #1 (1000 ppm solvent, 48 hours of exposure), the “Yeast viability and stress (glycerol)” value is listed as “does not appear to affect the viability of Yeast #1 or stress Yeast #1”. Further, in the data set with Yeast #2 (Yeast #2, corn mash, 0 to 1200 ppm solvent), the “Yeast performance (viability, glycerol, ethanol)” value is listed as “no adverse effect on yeast performance”.
`CCCCOC(=O)C(C)O` (stereo not drawn) [n-butyl lactate]: in the data set with humans (humans, in air), the “Toxic concentration in air” value was “about 4 ppm”. Besides, the Toxicity classification entry with humans (intraperitoneal route) is given as “classified as a poison by intraperitoneal route”.
